According to patent US20060159666A1, “Method of potentiating inflammatory and immune modulation for cell and drug therapy” (priority 2004, published 2006):

Key:
[1] = system: HUCBCs; experiment: 96-Chemotx migration assay of HUCBCs to recombinant chemoattractants; format: cell-based, human; conditions: MCP-1 5-30 ng/mL, IL-3 1-10 ng/mL, TPO 10-40 ng/mL; 4 hr; ATP luminescence
Description: HUCBCs were prepared as described above and cultured for 24 hr before use. The 96-Chemotx chambers (NeuroProbe, Gaithersburg, Md.) were used for the migration assays. The chamber is a 96-well plate consisting of bottom wells to hold the unknowns or chemoattractant and a top plate, which is a polycarbonate membrane with 5 μm pore size. […] All were pipetted (300 μL) directly into the bottom wells, in triplicate, after which the top plate was securely attached. The HUCBCs were pipetted directly into each top well at a concentration of 62,000 cells per 25 μL. The migration chambers were then placed in a cell culture incubator at 37° C. with 5% CO2 for 4 hr. The top plates were removed and the bottom plates were then centrifuged (300 rpm for 10 min) to force cells to the bottom. Half the medium (150 μL) was then removed and a cell viability assay (CellTiter-Glo Kit, Promega), which is based on the ability of live cells to incorporate adenosine triphosphate (ATP), was used to determine the numbers of cells that had migrated. The migration plate was read in an automated plate reader (BioTek) set to the appropriate luminescence.

[2] = system: HUCBCs; experiment: 96-Chemotx migration assay of HUCBCs to MCAO brain tissue extracts; format: cell-based, human; conditions: positive control; 4 hours
Excerpt: In determining the time course of HUCBC migration into brain after a stroke, an ex vivo experimental approach was employed. Male Sprague Dawley rats under a permanent middle cerebral artery occlusion (MCAO); a nylon filament was threaded through the internal carotid artery to the origin of the MCA and permanently ligated in place. At 4, 6, 12, 24, 48, 72 hrs and 1 week after ischemia the animals were euthanized and the brains removed within two min, immediately flash-frozen and then stored at −80° C. until needed. The frozen brains were semi-thawed and kept cold. The striatum, hippocampus, and the cortex were dissected from the sides both ipsilateral and contralateral to the occlusion. The same dissections were performed for sham surgery and normal rats. Tissue from each of the conditions were pooled, and kept on ice in clear Dulbecco's modified Eagle's medium (DMEM, Invitrogen, Carlsbad, Calif.). […]
The cryopreserved HUCBCs were thawed and transferred into clear DMEM with 5% FBS and 1 μL/1 mL of Gentamicin (Sigma, St. Louis). […] Cord blood cells were then plated in low adherence 6 well culture dishes (Corning, Corning, N.Y.) for 24 hrs in a water jacket incubator set at 37° C. and with 5% CO2 After 24 hrs cells were lifted by gentle pipetting, placed in a 15 mL tube, centrifuged, resuspended in 1 mL of media without FBS, and viability assessed using the trypan blue dye exclusion method. […]

[3] = system: HUCBCs; experiment: Human cytokine antibody array of HUCBC conditioned medium; format: cell-based; conditions: Ex Vivo 10 medium; IL-3 5 ng/mL or TPO 25 ng/mL for 5 d; 42-cytokine array
Description: The mononuclear fraction of the HUCBCs was obtained from Saneron CCEL Therapeutics, Inc. (Oldsmar, Fla.). Frozen samples were thawed in 10 mL of DMEM (Gibco), supplemented with 5% fetal bone serum (FBS, Gibco) and gentamicin (50 μg/mL, Sigma), or with Ex Vivo 10 media with gentamicin (50 μg/mL, Sigma). After centrifugation for 10 min at 200 rpm, the supernatant was removed and the cells were resuspended in 1 mL of the same medium. The viability of all samples ranged from 73% to 95% as determined by the ability to exclude trypan blue dye. Cells were then cultured for 3 to 14 d for cytokine arrays and ELISA assays; cells cultured in Ex Vivo 10 media were further stimulated with IL-3, TPO or both.
In order to address this, we used human cytokine arrays to establish whether the HUCBCs secreted these proteins. To determine the cytokines that HUCBCs released during culture, we used a TranSignal human cytokine antibody array (Panomics, Inc., Redwood City, Calif.), which simultaneously profiles either 23 (Array 1.0) or 42 (Array 3.0) cytokines/assay at the protein level. First, we examined whether cytokine production increased as a function of seeding density. The HUCBC were cultured at concentrations of 5, 10, or 30×10^6 per 5 mL of serum free DMEM with Gentamicin (50 μg/mL) for 3 d. […]

Row | Substance | HUCBC migration to chemoattractant compared to controls (DMEM and PBS) [1] | HUCBC migration to SDF-1 chemoattractant compared to all other conditions [2] | cytokine release from HUCBCs after stimulation [3]
1 | MCP-1: human recombinant MCP-1 used as chemoattractant | Significantly more HUCBCs migrated |  | 
2 | SDF-1: Stromal derived factor 1, chemoattractant used as positive control |  | Significantly more HUCBCs | 
3 | TPO: thrombopoietin, factor known to stimulate hematopoietic cells | Significantly more HUCBCs migrated |  | a somewhat different profile of protein release
